Results: patent publication US10772911B2, “Cell free compositions for cellular restoration and methods of making and using same” (Advanced ReGen Medical Technologies, LLC, priority 2013, dated 2020)

Tests used:
Format in all cases: cell-based
telomere length = telomere length of restored cell sample; conditions: pair R1-D1, presence vs absence of manumycin; FIG. 12
Source text: In an embodiment, the donor cell sample, receiver cell sample, or both are subjected to at least one analytical technique to characterize the quality of the cell sample. Herein, the “quality” of the cell sample refers to factors used to characterize the cellular health of the sample and includes parameters such as the number and types of cells present in the sample; the ratio of senescent to non-senescent cells in the sample; the extent of expression of a group of genetic and/or protein biomarkers; the average telomere length of the cells in the sample; and the status of the innate immune function of the cells in the sample. Telomere length may be determined using any suitable methodology, for example, terminal restriction fragment (TRF) analysis. Innate immune function may be evaluated using any suitable methodology such as the ^51Cr cytotoxicity release natural killer cell assay. The donor cell sample quality may be an assessment of the ability of the cells in the sample to improve and/or restore one or more cellular functions of the cells in the receiver cell sample.
Receiver cell samples (i.e., R1, R2, and R3) were individually paired with donor cell samples (i.e., D1, D2, and D3) and the pairs co-cultured in a transwell culture cell for four weeks. The morphology of the cells was studied at 2 weeks into the co-culture and at 4 weeks of co-culture. […]

restored cells = assay: cell morphology in transwell co-culture; conditions: co-cultured in the presence of 5 μM manumycin vs absence
Source text: (§1) Receiver cell samples (i.e., R1, R2, and R3) were individually paired with donor cell samples (i.e., D1, D2, and D3) and the pairs co-cultured in a transwell culture cell for four weeks. The morphology of the cells was studied at 2 weeks into the co-culture and at 4 weeks of co-culture. Gene expression arrays, protein arrays, and telomere length experiments compared freshly defrosted cells from the collection tubes (referred to as the baseline donor cell sample or baseline receiver cell sample) with cells at the 4-week study endpoint (referred to as restored cell samples).
The nature of the soluble particles passing through the permeable membrane in the transwell co-culture experiments was investigated. Specifically, transwell co-culture experiments were carried out in the presence or absence of manumycin. Manumycin, -[(1S,5S,6R)-5-hydroxy-5-[(1E,3E,5E)-7-[(2-hydroxy-5-oxo-1-cyclopenten-1-yl)amino]-7-oxo-1,3,5-heptatrien-1-yl]-2-oxo-7-oxabicyclo[4.1.0]hept-3-en-3-yl]-2E,4E,6R-trimethyl, 2,4-decadienamide, is an antibiotic that acts a potent and selective farnesytransferase inhibitor. Mannumycin is also known to inhibit the release of exosomes. […] Further support for the role of exosome/microvesicles in mediating the disclosed cellular restoration process is shown in FIG. 12.

[1] = system: senescence-associated secretory factors (SASF); assay: protein array of senescence-associated secretory factors; conditions: co-cultured in the presence of manumycin vs absence; FIG. 11
Source text: as §1
(§2) Protein array analyses were carried out using conditioned media from the baseline donor cell sample or baseline receiver cell sample. The conditioned media was mixed with like cellular protein extracts and applied to the custom-designed arrays which consisted of antibody probes for 68 factors linked to cellular aging and senescence, collectively referred to as the senescence-associated secretory factors (SASF). Quantitative PCR gene array analyses were carried out by extracting RNA from the baseline samples or the co-cultured donor and receiver samples. The data presented represents the average metric determined for either the baseline donor cell sample, the baseline receiver cell sample, or the restored cell sample. […]

senescence-related genes = assay: quantitative PCR gene array of senescence-related genes; conditions: co-cultured in the presence of manumycin vs absence
Source text: as §1, §2

## CCCC[C@@H](C)/C=C(C)/C=C(\C)C(=O)NC1=C[C@@](O)(/C=C/C=C/C=C/C(=O)NC2=C(O)CCC2=O)[C@@H]2O[C@@H]2C1=O [manumycin, -[(1S,5S,6R)-5-hydroxy-5-[(1E,3E,5E)-7-[(2-hydroxy-5-oxo-1-cyclopenten-1-yl)amino]-7-oxo-1,3,5-heptatrien-1-yl]-2-oxo-7-oxabicyclo[4.1.0]hept-3-en-3-yl]-2E,4E,6R-trimethyl, 2,4-decadienamide]
Telomere length
  telomere length of restored cell sample: decreased
Restored cells
  morphology of restored cells: less robust morphology
[1]
  protein expression levels of restored cell samples: elevated levels of all proteins investigated
senescence-related genes
  gene expression of restored cell samples: did not display a change in expression levels similar to those observed in the absence of manumycin
